Reference: ChEMBL document CHEMBL1201862, “PubChem BioAssay data set” (2004)
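Five compound concentrations were applied to cells in 96-well plates for 48 hours; endpoints were derived by simple linear interpolation of the resulting dose-response curve. At the GI50, growth is halved.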 Calls of active or inactive are those of the source. No stated cut-off is given here; in the data, active = GI50 up to about 1.1 µM and inactive = higher.

Experiments:
Assay in all cases: growth of human tumour cells (NCI), 48 h
NCI-H23 = system: NCI-H23
SF-268 = system: SF-268
HOP-92 = system: HOP-92
OVCAR-4 = system: OVCAR-4
UO-31 = system: UO-31
HCT-116 = system: HCT-116
DU-145 = system: DU-145
MOLT-4 = system: MOLT-4
NCI-H226 = system: NCI-H226
UACC-62 = system: UACC-62
SK-MEL-28 = system: SK-MEL-28
Hs-578T = system: Hs-578T
SK-OV-3 = system: SK-OV-3
IGROV-1 = system: IGROV-1
MDA-MB-435 = system: MDA-MB-435
Malme-3M = system: Malme-3M
TK-10 = system: TK-10
HL-60 = system: HL-60
SF-539 = system: SF-539

Measured: GI50

CN(C)CCn1nc(N)c2nc3cc(C(F)(F)F)ccc3nc21
inactive: NCI-H23 > 100 µM | SF-268 94.6 µM | HOP-92 79.4 µM | OVCAR-4 > 100 µM | UO-31 31.3 µM | HCT-116 > 100 µM | DU-145 54.8 µM | MOLT-4 33.2 µM | NCI-H226 2.49 µM | UACC-62 > 100 µM | SK-MEL-28 > 100 µM | Hs-578T 88.7 µM | SK-OV-3 > 100 µM | IGROV-1 41.5 µM | MDA-MB-435 > 100 µM | Malme-3M > 100 µM | TK-10 > 100 µM | HL-60 34.6 µM

COc1ccc(-n2c3c(c4c(CN(C)C)c(O)ccc42)C(=O)c2ccccc2C3=O)cc1
inactive: NCI-H23 12.7 µM | SF-268 10.1 µM | HOP-92 16 µM | OVCAR-4 2.37 µM | UO-31 1.96 µM | HCT-116 1.68 µM | DU-145 12.9 µM | MOLT-4 3 µM | UACC-62 4.41 µM | SK-MEL-28 3.38 µM | Hs-578T 30.5 µM | SK-OV-3 2.48 µM | IGROV-1 3.99 µM | MDA-MB-435 6.93 µM | Malme-3M 11.4 µM | SF-539 2.04 µM | TK-10 17.6 µM | HL-60 3.13 µM

CC(C)(O)/C=C\P(=O)(O)O
inactive: NCI-H23 > 100 µM | SF-268 > 100 µM | HOP-92 > 100 µM | OVCAR-4 > 100 µM | HCT-116 > 100 µM | DU-145 > 100 µM | NCI-H226 > 100 µM | UACC-62 > 100 µM | SK-MEL-28 > 100 µM | Hs-578T > 100 µM | SK-OV-3 > 100 µM | IGROV-1 > 100 µM | MDA-MB-435 > 100 µM | Malme-3M > 100 µM | SF-539 > 100 µM | TK-10 > 100 µM

COC(=O)Oc1nn(C(=O)OC)c(=O)c2ccccc12
inactive: NCI-H23 > 100 µM | SF-268 > 100 µM | UO-31 > 100 µM | HCT-116 > 100 µM | DU-145 > 100 µM | MOLT-4 > 100 µM | NCI-H226 > 100 µM | UACC-62 > 100 µM | SK-MEL-28 > 100 µM | Hs-578T 65.8 µM | SK-OV-3 > 100 µM | IGROV-1 > 100 µM | MDA-MB-435 > 100 µM | Malme-3M 42.4 µM | SF-539 61.8 µM | TK-10 > 100 µM | HL-60 > 100 µM

Oc1c(Cl)cc(CN(Cc2cc(Cl)c(O)c(Cl)c2)C2CCCCC2)cc1Cl
inactive: NCI-H23 > 100 µM | SF-268 > 100 µM | HOP-92 > 100 µM | OVCAR-4 > 100 µM | UO-31 > 100 µM | HCT-116 > 100 µM | DU-145 > 100 µM | MOLT-4 > 100 µM | UACC-62 > 100 µM | SK-MEL-28 > 100 µM | Hs-578T > 100 µM | SK-OV-3 > 100 µM | IGROV-1 > 100 µM | MDA-MB-435 > 100 µM | Malme-3M > 100 µM | SF-539 > 100 µM | TK-10 > 100 µM

O=c1c2c3c(sc2nc2n1N=CN(c1ccc(F)cc1)C2)CCCC3
inactive: NCI-H23 > 100 µM | SF-268 > 100 µM | HOP-92 > 100 µM | OVCAR-4 > 100 µM | UO-31 > 100 µM | HCT-116 > 100 µM | DU-145 > 100 µM | MOLT-4 > 100 µM | NCI-H226 > 100 µM | UACC-62 > 100 µM | SK-MEL-28 > 100 µM | Hs-578T > 100 µM | SK-OV-3 > 100 µM | IGROV-1 > 100 µM | MDA-MB-435 > 100 µM | Malme-3M > 100 µM | TK-10 > 100 µM

O=c1[nH]c(N/N=C\C(O)C(O)C(O)C(O)CO)nc2ccccc12 (stereo not drawn)
inactive: NCI-H23 > 100 µM | SF-268 > 100 µM | HOP-92 > 100 µM | UO-31 > 100 µM | HCT-116 > 100 µM | DU-145 > 100 µM | MOLT-4 > 100 µM | NCI-H226 > 100 µM | UACC-62 > 100 µM | SK-MEL-28 > 100 µM | Hs-578T > 100 µM | SK-OV-3 > 100 µM | IGROV-1 > 100 µM | MDA-MB-435 > 100 µM | SF-539 > 100 µM | TK-10 > 100 µM | HL-60 > 100 µM

C=C(C)[C@H]1C2=CC(C)=C(O2)[C@@H](O[C@@H]2c3oc(cc3C)[C@H](C(=C)C)[C@H]3C=C(CC[C@H]2C(=C)C)C(=O)O3)[C@H](C(=C)C)CCC2=C[C@H]1OC2=O
inactive: NCI-H23 > 100 µM | SF-268 > 100 µM | HOP-92 > 100 µM | OVCAR-4 > 100 µM | UO-31 > 100 µM | HCT-116 > 100 µM | DU-145 > 100 µM | MOLT-4 > 100 µM | NCI-H226 > 100 µM | UACC-62 > 100 µM | SK-MEL-28 > 100 µM | Hs-578T > 100 µM | SK-OV-3 > 100 µM | IGROV-1 > 100 µM | MDA-MB-435 > 100 µM | Malme-3M > 100 µM | TK-10 > 100 µM | HL-60 > 100 µM

C=C1C(=O)O[C@@H]2/C=C(/C)[C@@H](OC(C)=O)C/C=C(\C)C(O)[C@@H](OC(=O)/C(C)=C\C)C12 (stereo partly drawn)
inactive: NCI-H23 41.9 µM | SF-268 38.3 µM | HOP-92 22.1 µM | OVCAR-4 41.6 µM | HCT-116 16.3 µM | DU-145 43.7 µM | MOLT-4 21.1 µM | NCI-H226 > 100 µM | UACC-62 26.4 µM | SK-MEL-28 18.2 µM | Hs-578T 56.2 µM | SK-OV-3 > 100 µM | IGROV-1 50.7 µM | MDA-MB-435 20.4 µM | SF-539 34.4 µM | TK-10 68.7 µM | HL-60 14.8 µM

CN(/N=C/c1ccc(Cl)c(Cl)c1)C1=NCCN1
inactive: NCI-H23 56 µM | SF-268 28.7 µM | HOP-92 21.7 µM | OVCAR-4 41.2 µM | HCT-116 17.9 µM | DU-145 48.6 µM | MOLT-4 13.7 µM | NCI-H226 27.1 µM | UACC-62 18.6 µM | Hs-578T 18.1 µM | SK-OV-3 22.4 µM | IGROV-1 27.1 µM | MDA-MB-435 19.5 µM | Malme-3M 18.8 µM | SF-539 21.2 µM | TK-10 46.2 µM

CC(=O)OC1CCC2(C)C(=CC(C3C=C4CC(OC(C)=O)CCC4(C)C4=C3C3CC5OC6(CCC(C)CO6)C(C)C5C3(C)CC4)C3=C2CCC2(C)C3CC3OC4(CCC(C)CO4)C(C)C32)C1 (stereo not drawn)
inactive: NCI-H23 14.7 µM | SF-268 11.4 µM | HOP-92 14.1 µM | OVCAR-4 14 µM | UO-31 15.5 µM | HCT-116 15.1 µM | DU-145 14.2 µM | MOLT-4 2.07 µM | NCI-H226 23 µM | UACC-62 13.4 µM | SK-MEL-28 17.7 µM | Hs-578T 2.61 µM | SK-OV-3 16.3 µM | IGROV-1 11.5 µM | MDA-MB-435 14.1 µM | Malme-3M 13.6 µM | TK-10 14.5 µM

c1ccc2c(c1)c1c(c3ccccc32)CN2CCCC2C1 (stereo not drawn)
inactive: NCI-H23 2.94 µM | SF-268 2.92 µM | HOP-92 2.84 µM | OVCAR-4 3.3 µM | UO-31 2.77 µM | HCT-116 3.17 µM | DU-145 4.17 µM | MOLT-4 4.61 µM | UACC-62 2.33 µM | SK-MEL-28 2.62 µM | Hs-578T 2.38 µM | SK-OV-3 7.52 µM | IGROV-1 2.7 µM | MDA-MB-435 4.42 µM | Malme-3M 2.45 µM | SF-539 2.9 µM | TK-10 10.4 µM | HL-60 1.41 µM

CN(CCc1ccc(N)cc1)[C@H]1CCCC[C@H]1N1CCCC1
inactive: NCI-H23 > 100 µM | SF-268 > 100 µM | HOP-92 > 100 µM | OVCAR-4 > 100 µM | UO-31 > 100 µM | HCT-116 > 100 µM | DU-145 > 100 µM | MOLT-4 98.4 µM | NCI-H226 > 100 µM | UACC-62 > 100 µM | SK-MEL-28 > 100 µM | Hs-578T > 100 µM | SK-OV-3 > 100 µM | IGROV-1 > 100 µM | MDA-MB-435 > 100 µM | Malme-3M > 100 µM | TK-10 > 100 µM | HL-60 > 100 µM

CNC(=O)C(NC(=O)[C@H](CC(C)C)NC(=O)[C@@H](S)CCN1C(=O)N(C)C(C)(C)C1=O)C(C)(C)C (stereo partly drawn)
inactive: NCI-H23 > 100 µM | SF-268 > 100 µM | HOP-92 > 100 µM | OVCAR-4 > 100 µM | UO-31 > 100 µM | HCT-116 > 100 µM | DU-145 > 100 µM | MOLT-4 > 100 µM | NCI-H226 > 100 µM | UACC-62 > 100 µM | SK-MEL-28 > 100 µM | Hs-578T > 100 µM | SK-OV-3 > 100 µM | IGROV-1 > 100 µM | MDA-MB-435 > 100 µM | Malme-3M > 100 µM | TK-10 > 100 µM | HL-60 > 100 µM

COc1ccc(/N=C2\C(=N/c3ccc(OC)cc3)N(S(=O)(=O)c3ccccc3)C(=S)N2c2ccc(OC)cc2)cc1
inactive: NCI-H23 > 100 µM | SF-268 > 100 µM | HOP-92 > 100 µM | UO-31 > 100 µM | HCT-116 > 100 µM | DU-145 > 100 µM | MOLT-4 > 100 µM | NCI-H226 > 100 µM | UACC-62 > 100 µM | SK-MEL-28 > 100 µM | Hs-578T 89.1 µM | SK-OV-3 > 100 µM | IGROV-1 > 100 µM | MDA-MB-435 > 100 µM | SF-539 > 100 µM | TK-10 > 100 µM
